# Key:
# USP-2 and UCH-L3 [1] = experiment: Downscaling: compatibility of the deubiquitinase assay with HBC and DMSO; type: biochemical, human
# Procedure: One important factor which has to be tested during downscaling of the assay to the […] (2080 well nanoplates) is the assay's compatibility with hydroxy beta cyclodextrin (HBC) and DMSO. Nanocarriers are coated with HBC in order facilitate re-solubilization of dried test compounds (‘dry screening’) and to reduce adsorption of assay components to the carrier. If HBC interferes with the assay, pre-coated plates can not be used and ‘wet screening’, utilizing compounds dissolved in DMSO, has to be performed. […] Even DMSO concentrations of up to 5% are found to be compatible with the screen. […] These findings support a ‘wet screening’ format for these target family.
# USP-2 and UCH-L3 [2] = experiment: Inhibition of the deubiquitinases (titration of inhibitor, fluorescence polarization assay); type: biochemical, human; conditions: in presence of 5 mM DTT
# Procedure: Measurements of polarization and lifetime are performed on the research reader of Evotec OAI (see below). To perform the test, the de-ubiquitinating enzyme is first put into the well and the addition of the substrate triggered the start of the reaction. The enzymatic reaction is stopped by shifting the pH from 7.5 to 5 with the addition of Stop buffer (end concentration of 30 mM malonic acid pH 4.5—see TABLE 1). With this procedure the read-out could be kept stable for several hours.
# Cysteine proteases, such as USP-2 and UCH-L3, are sensitive to covalent modification of the active site cystein. […] Ubiquitin aldehyde is a known inhibitor for both enzymes, USP-2 and UCH-L3. […] Using this molecule we analyzed whether addition of DTT can be utilized to mask the activity of covalent active site inhibitors during the screen. When titrating Ubiquitin aldehyde in presence of 5 mM DTT an IC50 value of 100 nM was found.
# USP-2 and UCH-L3 [3] = conditions: in absence of reducing agent; cited from earlier work
compound,measurement,setting,value
C[S+](C)[O-] [DMSO],Concentration compatible with the screen,USP-2 and UCH-L3 [1],up to 5%
same,Interference with the reaction,USP-2 and UCH-L3 [1]; increasing concentrations added to the assay,only a minimal interference
Ubiquitin aldehyde,IC50,USP-2 and UCH-L3 [2],0.1 µM
same,Potency,USP-2 and UCH-L3 [3],pM activity range
hydroxy beta cyclodextrin [HBC],Effect on enzymatic activity,USP-2 and UCH-L3 [1]; HBC added to the assay,a reduction of the enzymatic activity was observed

# From US20080038768A1, “Assay for ubiquitin mediated proteolysis” (priority 2006, published 2008)
